# Assay results as given in ChEMBL document CHEMBL4602735, “Discovery of (1H-Pyrazolo[3,4-c]pyridin-5-yl)sulfonamide Analogues as Hepatitis B Virus Capsid Assembly Modulators by Conformation Constraint” (J Med Chem, 2020).
# Tests used:
# [1] = Selectivity index, ratio of CC50 for cytotoxicity in human HepAD38 cells assessed as induction of cell killing to EC50 for antiviral activity against HBV infected in human HepAD38 cells assessed as reduction in viral DNA levels incubated for 6 days by PCR analysis; assay type: toxicity, cell-based; conditions: read-out: Ratio CC50/EC50
# [2] = tested on: Hepatitis B virus; test: Antiviral activity against HBV infected in human HepAD38 cells assessed as reduction in viral DNA levels incubated for 6 days by PCR analysis; assay type: functional, organism-based; conditions: HePAD38, 144 h
# [3] = Cytotoxicity in human HepAD38 cells assessed as induction of cell killing; assay type: cell-based
EC50 [2] [µM],SMILES,selectivity ratio at 144 h [1],CC50 [3] [µM]
0.045,Cc1cc(Nc2nn(C3CC3)c3ccc(S(=O)(=O)N4C[C@@H]5C[C@H]4CO5)cc23)ccc1F,422,19
> 10,Cc1cc(Nc2nn(C(F)F)c3ccc(S(=O)(=O)N4CCOCC4)cc23)ccc1F,,> 100
1.1,O=S(=O)(c1ccc2c(c1)c(Nc1ccc(F)cc1)nn2C1CC1)N1CCC(CO)CC1,23,24.8
0.24,Cc1cc(Nc2nn(CC(F)(F)F)c3ccc(S(=O)(=O)N4CCOCC4)cc23)ccc1F,> 417,> 100
> 10,O=S(=O)(c1ccc2c(c1)c(Oc1ccc(F)c(Cl)c1)nn2C1CC1)N1CCC(O)CC1,< 7.5,75
0.25,O=S(=O)(c1ccc2c(c1)c(Nc1ccc(F)cc1)nn2C1CC1)N1CCCC(O)C1 (stereo unspecified),76.2,19.1
1.28,O=S(=O)(c1ccc2[nH]nc(Nc3ccc(F)c(Cl)c3)c2c1)N1CCC(O)CC1,18.8,24
0.032,Cc1cc(Nc2nn(C3CC3)c3ccc(S(=O)(=O)N4CCC(O)CC4)cc23)ccc1F,343,11
> 10,CN(c1ccc(F)c(Cl)c1)c1nn(C2CC2)c2ccc(S(=O)(=O)N3CCC(O)CC3)cc12,,> 100
> 10,O=S(=O)(c1ccc2c(c1)c(NCc1ccc(F)cc1)nn2C1CC1)N1CCC(O)CC1,,
0.74,O=S(=O)(c1ccc2c(c1)c(Nc1ccccc1)nn2C1CC1)N1CCC(O)CC1,44,32.2
0.34,O=S(=O)(c1cc2c(Nc3ccc(F)c(C(F)(F)F)c3)nn(C3CC3)c2cn1)N1CCOCC1,> 294,> 100
0.12,O=S(=O)(c1ccc2c(c1)c(Nc1ccc(F)c(C(F)F)c1)nn2C1CC1)N1CCOCC1,417,50
> 10,Cc1cc(Nc2nn(C3CC3)c3ccc(S(=O)(=O)N4CCC(O)CC4)cc23)ncc1F,,
0.29,O=S(=O)(c1ccc2c(c1)c(Nc1ccc(F)c(C(F)F)c1)nn2C1CC1)N1CCC(O)CC1,47,13.6
> 10,O=S(=O)(c1ccc2c(c1)c(NC1CCCCC1)nn2C1CC1)N1CCC(O)CC1,< 10,100
> 10,O=S(=O)(c1ccc2c(c1)c(NCc1ccccc1)nn2C1CC1)N1CCC(O)CC1,,
1.38,Cn1nc(Nc2ccc(F)c(Cl)c2)c2cc(S(=O)(=O)N3CCC(O)CC3)ccc21,> 72,> 100
> 10,O=S(=O)(c1ccc2c(c1)c(Nc1ccc(F)cn1)nn2C1CC1)N1CCC(O)CC1,,
> 5,O=S(=O)(c1ccc2c(n1)c(Nc1cc(F)c(F)c(F)c1)nn2C1CC1)N1CCC(O)CC1,,
> 20,O=S(=O)(c1ccc2c(c(Nc3cc(F)c(F)c(F)c3)nn2C2CC2)c1F)N1CCC(O)CC1,,> 100
> 10,CC(C)n1nc(Nc2ccc(F)cc2)c2cc(S(=O)(=O)N3CCC(O)CC3)ccc21,,
> 20,O=S(=O)(c1cnc2c(c1)c(Nc1cc(F)c(F)c(F)c1)nn2C1CC1)N1CCC(O)CC1,,
> 10,N#Cc1cc(Nc2nn(C3CC3)c3ccc(S(=O)(=O)N4CCC(O)CC4)cc23)ccc1F,,
0.21,Cc1cc(Nc2nn(C3CC3)c3cc(F)c(S(=O)(=O)N4CCOCC4)cc23)ccc1F,,> 100
> 10,O=S(=O)(c1ccc2c(c1)c(NC1CCCC1)nn2C1CC1)N1CCC(O)CC1,,> 100
0.22 to 5,Cc1ccc(Nc2nn(C3CC3)c3ccc(S(=O)(=O)N4CCC(O)CC4)cc23)cc1,,
> 10,O=C(O)C1CCN(S(=O)(=O)c2ccc3c(c2)c(Nc2ccc(F)cc2)nn3C2CC2)C1 (stereo unspecified),,> 100
> 10,O=S(=O)(c1ccc2c(c1)c(Nc1ccc(F)cc1)nn2C1COC1)N1CCC(O)CC1,,
